Measured values reported in ChEMBL document CHEMBL4507263, “Data for DCP probe BAY-474” (2021).

Key:
[1] = molecular target: Serine/threonine-protein kinase STK11 (Homo sapiens) (UniProt Q15831); experiment: LKB1 (h) Millipore kinase activity assay; settings: Compound concentration 1.0 uM
[2] = molecular target: Platelet-derived growth factor receptor alpha (Homo sapiens) (UniProt P16234); experiment: PDGFRalpha (h) Millipore kinase activity assay; settings: Compound concentration 1.0 uM
[3] = molecular target: Receptor-interacting serine/threonine-protein kinase 2 (Homo sapiens) (UniProt O43353); experiment: RIPK2 (h) Millipore kinase activity assay; settings: Compound concentration 1.0 uM
[4] = molecular target: Serine/threonine-protein kinase WNK2 (Homo sapiens) (UniProt Q9Y3S1); experiment: WNK2 (h) Millipore kinase activity assay; settings: Compound concentration 1.0 uM
[5] = species: Rattus norvegicus; experiment: Testosterone Eurofins-Panlabs radioligand binding assay; set-up: ligand concentration 1.5 nM; settings: Compound concentration 10.0 uM
[6] = molecular target: Gamma-aminobutyric acid type B receptor subunit 1 (Homo sapiens) (UniProt Q9UBS5); experiment: Inhibition of GABAB1A at compound concentration of 10.0 uM in the Eurofins-Panlabs radioligand binding assay (Eurofins_assay_228610); set-up: ligand concentration 4 nM; settings: Compound concentration 10.0 uM
[7] = molecular target: Glutamate receptor ionotropic, kainate (Rattus norvegicus) (UniProt P22756+Q01812+P42260+P42264+Q63273); experiment: Inhibition of Glutamate, Kainate at 10 µM in the Eurofins-Panlabs radioligand binding assay (Eurofins_assay_232700); settings: Compound concentration 10.0 uM
[8] = molecular target: Neuropeptide Y receptor type 2 (Homo sapiens) (UniProt P49146); experiment: Inhibition of Neuropeptide Y Y2 at 10 µM in the Eurofins-Panlabs radioligand binding assay (Eurofins_assay_257110); settings: Compound concentration 10.0 uM
[9] = species: Rattus norvegicus; experiment: Inhibition of Rolipram at 10 µM in the Eurofins-Panlabs radioligand binding assay (Eurofins_assay_268811); type: protein assay; set-up: ligand concentration 1.8 nM; settings: Compound concentration 10.0 uM
[10] = molecular target: Histamine H3 receptor (Homo sapiens) (UniProt Q9Y5N1); settings: Compound concentration 10.0 uM
[11] = molecular target: GABA-A receptor; anion channel (Rattus norvegicus) (UniProt O09028+P15431+P18506+P18508+P19969+P20236+P23574+P23576+P28471+P28473+P30191+P62813+P63079+P63138+Q91ZM7+Q9ES14); settings: Compound concentration 10.0 uM
[12] = molecular target: Tyrosine-protein kinase ABL1 (Homo sapiens) (UniProt P00519); settings: Compound concentration 1000.0 nM
[13] = molecular target: BMP-2-inducible protein kinase (Homo sapiens) (UniProt Q9NSY1); settings: Compound concentration 1000.0 nM
[14] = molecular target: Calcium/calmodulin-dependent protein kinase kinase 1 (Homo sapiens) (UniProt Q8N5S9); settings: Compound concentration 1000.0 nM
[15] = molecular target: Cyclin-dependent kinase-like 5 (Homo sapiens) (UniProt O76039); settings: Compound concentration 1000.0 nM
[16] = molecular target: Dual specificity protein kinase CLK2 (Homo sapiens) (UniProt P49760); settings: Compound concentration 1000.0 nM
[17] = molecular target: Casein kinase I isoform alpha (Homo sapiens) (UniProt P48729); settings: Compound concentration 1000.0 nM
[18] = molecular target: Discoidin domain-containing receptor 2 (Homo sapiens) (UniProt Q16832); settings: Compound concentration 1000.0 nM
[19] = molecular target: Dual specificity tyrosine-phosphorylation-regulated kinase 2 (Homo sapiens) (UniProt Q92630); settings: Compound concentration 1000.0 nM
[20] = molecular target: Ephrin type-B receptor 2 (Homo sapiens) (UniProt P29323); settings: Compound concentration 1000.0 nM
[21] = molecular target: Fibroblast growth factor receptor 1 (Homo sapiens) (UniProt P11362); settings: Compound concentration 1000.0 nM
[22] = test system: Fibroblast growth factor receptor 3 (Homo sapiens), P22607 [G697C]; settings: Compound concentration 1000.0 nM
[23] = test system: Receptor-type tyrosine-protein kinase FLT3 (Homo sapiens), P36888 [D835H]; settings: Compound concentration 1000.0 nM
[24] = molecular target: Vascular endothelial growth factor receptor 3 (Homo sapiens) (UniProt P35916); settings: Compound concentration 1000.0 nM
[25] = molecular target: Serine/threonine-protein kinase ICK (Homo sapiens) (UniProt Q9UPZ9); settings: Compound concentration 1000.0 nM
[26] = molecular target: Tyrosine-protein kinase JAK3 (Homo sapiens) (UniProt P52333); settings: Compound concentration 1000.0 nM
[27] = molecular target: Dual specificity mitogen-activated protein kinase kinase 4 (Homo sapiens) (UniProt P45985); settings: Compound concentration 1000.0 nM
[28] = molecular target: Maternal embryonic leucine zipper kinase (Homo sapiens) (UniProt Q14680); settings: Compound concentration 1000.0 nM
[29] = molecular target: MAP kinase-interacting serine/threonine-protein kinase 2 (Homo sapiens) (UniProt Q9HBH9); settings: Compound concentration 1000.0 nM
[30] = molecular target: Serine/threonine-protein kinase MRCK alpha (Homo sapiens) (UniProt Q5VT25); settings: Compound concentration 1000.0 nM
[31] = molecular target: Serine/threonine-protein kinase MRCK beta (Homo sapiens) (UniProt Q9Y5S2); settings: Compound concentration 1000.0 nM
[32] = molecular target: Mitogen-activated protein kinase 14 (Homo sapiens) (UniProt Q16539); settings: Compound concentration 1000.0 nM
[33] = molecular target: Cyclin-dependent kinase 14 (Homo sapiens) (UniProt O94921); settings: Compound concentration 1000.0 nM
[34] = molecular target: Serine/threonine-protein kinase SIK3 (Homo sapiens) (UniProt Q9Y2K2); settings: Compound concentration 1000.0 nM
[35] = test system: Proto-oncogene tyrosine-protein kinase receptor Ret (Homo sapiens), P07949 [M918T]; settings: Compound concentration 1000.0 nM
[36] = test system: Proto-oncogene tyrosine-protein kinase receptor Ret (Homo sapiens), P07949 [V804L]; settings: Compound concentration 1000.0 nM
[37] = molecular target: Serine/threonine-protein kinase Sgk2 (Homo sapiens) (UniProt Q9HBY8); settings: Compound concentration 1000.0 nM
[38] = molecular target: NUAK family SNF1-like kinase 2 (Homo sapiens) (UniProt Q9H093); settings: Compound concentration 1000.0 nM
[39] = molecular target: Proto-oncogene tyrosine-protein kinase Src (Homo sapiens) (UniProt P12931); settings: Compound concentration 1000.0 nM
[40] = molecular target: Serine/threonine-protein kinase TAO1 (Homo sapiens) (UniProt Q7L7X3); settings: Compound concentration 1000.0 nM
[41] = molecular target: Testis-specific serine/threonine-protein kinase 3 (Homo sapiens) (UniProt Q96PN8); settings: Compound concentration 1000.0 nM
[42] = molecular target: Tyrosine-protein kinase TXK (Homo sapiens) (UniProt P42681); settings: Compound concentration 1000.0 nM

Discoidin domain-containing receptor 2 (Homo sapiens), sequence (Q16832 whole entry, the tested form may be a part): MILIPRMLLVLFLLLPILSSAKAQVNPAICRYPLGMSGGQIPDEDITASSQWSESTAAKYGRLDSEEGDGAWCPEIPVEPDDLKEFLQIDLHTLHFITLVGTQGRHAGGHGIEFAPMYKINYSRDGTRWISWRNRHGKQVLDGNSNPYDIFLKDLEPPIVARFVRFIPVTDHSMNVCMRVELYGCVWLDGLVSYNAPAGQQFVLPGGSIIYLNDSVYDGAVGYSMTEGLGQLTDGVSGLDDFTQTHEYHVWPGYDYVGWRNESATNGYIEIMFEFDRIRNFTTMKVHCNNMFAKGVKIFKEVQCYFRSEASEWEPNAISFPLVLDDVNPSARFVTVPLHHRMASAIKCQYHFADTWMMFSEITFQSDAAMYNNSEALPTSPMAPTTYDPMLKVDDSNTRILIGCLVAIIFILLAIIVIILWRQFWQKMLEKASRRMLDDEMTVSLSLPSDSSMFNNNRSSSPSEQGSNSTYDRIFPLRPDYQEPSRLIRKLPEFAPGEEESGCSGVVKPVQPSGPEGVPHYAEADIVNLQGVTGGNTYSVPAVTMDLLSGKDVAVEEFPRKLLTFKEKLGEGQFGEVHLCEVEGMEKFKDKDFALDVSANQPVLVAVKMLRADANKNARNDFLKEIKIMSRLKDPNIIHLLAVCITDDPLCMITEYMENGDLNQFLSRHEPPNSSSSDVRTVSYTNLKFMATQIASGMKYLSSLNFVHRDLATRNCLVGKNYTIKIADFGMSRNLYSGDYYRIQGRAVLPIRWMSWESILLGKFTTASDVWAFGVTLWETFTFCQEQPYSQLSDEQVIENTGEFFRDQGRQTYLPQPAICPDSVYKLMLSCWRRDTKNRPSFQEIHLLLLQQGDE
Serine/threonine-protein kinase WNK2 (Homo sapiens), sequence (Q9Y3S1 whole entry): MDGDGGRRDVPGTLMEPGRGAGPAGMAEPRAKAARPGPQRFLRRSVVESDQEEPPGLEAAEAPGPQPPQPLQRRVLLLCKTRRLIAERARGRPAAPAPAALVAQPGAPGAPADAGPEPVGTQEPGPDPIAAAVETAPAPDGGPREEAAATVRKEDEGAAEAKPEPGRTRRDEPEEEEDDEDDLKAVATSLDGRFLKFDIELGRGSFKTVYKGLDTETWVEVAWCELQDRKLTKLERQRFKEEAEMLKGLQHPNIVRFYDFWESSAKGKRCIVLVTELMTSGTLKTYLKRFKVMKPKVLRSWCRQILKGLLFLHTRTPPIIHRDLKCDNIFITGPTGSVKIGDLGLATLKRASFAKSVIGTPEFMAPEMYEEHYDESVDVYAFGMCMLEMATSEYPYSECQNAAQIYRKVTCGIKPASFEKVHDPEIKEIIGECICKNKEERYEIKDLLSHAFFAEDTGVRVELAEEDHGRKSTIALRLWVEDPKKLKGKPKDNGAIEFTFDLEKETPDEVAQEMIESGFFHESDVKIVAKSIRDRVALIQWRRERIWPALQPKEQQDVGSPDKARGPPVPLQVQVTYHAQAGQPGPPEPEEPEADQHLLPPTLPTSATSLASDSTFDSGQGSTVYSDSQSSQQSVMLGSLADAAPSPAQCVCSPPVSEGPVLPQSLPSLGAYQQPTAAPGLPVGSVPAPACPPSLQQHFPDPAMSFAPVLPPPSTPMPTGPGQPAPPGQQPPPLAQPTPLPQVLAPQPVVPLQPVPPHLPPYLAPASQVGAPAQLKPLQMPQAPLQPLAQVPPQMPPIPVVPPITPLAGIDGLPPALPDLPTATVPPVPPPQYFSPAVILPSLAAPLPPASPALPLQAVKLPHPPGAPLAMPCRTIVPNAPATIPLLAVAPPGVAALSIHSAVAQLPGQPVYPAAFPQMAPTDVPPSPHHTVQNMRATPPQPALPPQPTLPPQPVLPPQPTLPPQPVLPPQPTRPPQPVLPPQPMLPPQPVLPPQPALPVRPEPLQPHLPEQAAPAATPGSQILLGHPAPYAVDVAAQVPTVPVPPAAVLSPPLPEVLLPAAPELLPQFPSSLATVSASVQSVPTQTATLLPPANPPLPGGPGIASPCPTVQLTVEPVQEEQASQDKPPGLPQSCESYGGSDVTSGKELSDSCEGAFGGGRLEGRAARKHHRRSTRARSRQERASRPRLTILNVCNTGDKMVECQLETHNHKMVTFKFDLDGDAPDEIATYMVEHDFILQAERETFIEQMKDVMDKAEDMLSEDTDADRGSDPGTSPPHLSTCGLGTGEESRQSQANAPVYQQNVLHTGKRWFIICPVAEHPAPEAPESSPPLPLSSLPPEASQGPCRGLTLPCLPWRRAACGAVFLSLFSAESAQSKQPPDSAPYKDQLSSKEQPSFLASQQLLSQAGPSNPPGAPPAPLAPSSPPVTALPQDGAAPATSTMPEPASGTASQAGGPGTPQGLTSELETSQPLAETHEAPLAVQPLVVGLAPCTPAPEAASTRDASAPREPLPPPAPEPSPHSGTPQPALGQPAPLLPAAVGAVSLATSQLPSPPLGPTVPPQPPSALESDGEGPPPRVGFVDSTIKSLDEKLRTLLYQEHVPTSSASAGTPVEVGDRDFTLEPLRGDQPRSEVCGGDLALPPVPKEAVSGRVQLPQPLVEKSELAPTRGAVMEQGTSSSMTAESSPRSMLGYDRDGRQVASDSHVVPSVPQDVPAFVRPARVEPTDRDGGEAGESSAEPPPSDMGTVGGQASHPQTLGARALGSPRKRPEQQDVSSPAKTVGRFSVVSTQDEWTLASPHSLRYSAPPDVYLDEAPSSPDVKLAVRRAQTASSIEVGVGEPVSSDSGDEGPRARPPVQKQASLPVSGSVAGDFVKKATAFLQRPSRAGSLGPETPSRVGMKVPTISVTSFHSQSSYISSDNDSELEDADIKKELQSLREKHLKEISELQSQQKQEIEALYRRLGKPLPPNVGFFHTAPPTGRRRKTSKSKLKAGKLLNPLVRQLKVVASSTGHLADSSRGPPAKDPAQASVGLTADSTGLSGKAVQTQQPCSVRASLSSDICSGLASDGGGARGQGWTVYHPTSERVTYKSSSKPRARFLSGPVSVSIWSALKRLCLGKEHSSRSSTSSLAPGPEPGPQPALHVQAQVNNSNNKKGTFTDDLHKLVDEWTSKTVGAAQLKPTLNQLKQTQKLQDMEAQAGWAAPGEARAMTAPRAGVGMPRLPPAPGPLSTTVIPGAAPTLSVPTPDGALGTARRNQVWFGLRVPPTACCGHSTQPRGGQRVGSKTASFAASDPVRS
Serine/threonine-protein kinase TAO1 (Homo sapiens), sequence (Q7L7X3 whole entry): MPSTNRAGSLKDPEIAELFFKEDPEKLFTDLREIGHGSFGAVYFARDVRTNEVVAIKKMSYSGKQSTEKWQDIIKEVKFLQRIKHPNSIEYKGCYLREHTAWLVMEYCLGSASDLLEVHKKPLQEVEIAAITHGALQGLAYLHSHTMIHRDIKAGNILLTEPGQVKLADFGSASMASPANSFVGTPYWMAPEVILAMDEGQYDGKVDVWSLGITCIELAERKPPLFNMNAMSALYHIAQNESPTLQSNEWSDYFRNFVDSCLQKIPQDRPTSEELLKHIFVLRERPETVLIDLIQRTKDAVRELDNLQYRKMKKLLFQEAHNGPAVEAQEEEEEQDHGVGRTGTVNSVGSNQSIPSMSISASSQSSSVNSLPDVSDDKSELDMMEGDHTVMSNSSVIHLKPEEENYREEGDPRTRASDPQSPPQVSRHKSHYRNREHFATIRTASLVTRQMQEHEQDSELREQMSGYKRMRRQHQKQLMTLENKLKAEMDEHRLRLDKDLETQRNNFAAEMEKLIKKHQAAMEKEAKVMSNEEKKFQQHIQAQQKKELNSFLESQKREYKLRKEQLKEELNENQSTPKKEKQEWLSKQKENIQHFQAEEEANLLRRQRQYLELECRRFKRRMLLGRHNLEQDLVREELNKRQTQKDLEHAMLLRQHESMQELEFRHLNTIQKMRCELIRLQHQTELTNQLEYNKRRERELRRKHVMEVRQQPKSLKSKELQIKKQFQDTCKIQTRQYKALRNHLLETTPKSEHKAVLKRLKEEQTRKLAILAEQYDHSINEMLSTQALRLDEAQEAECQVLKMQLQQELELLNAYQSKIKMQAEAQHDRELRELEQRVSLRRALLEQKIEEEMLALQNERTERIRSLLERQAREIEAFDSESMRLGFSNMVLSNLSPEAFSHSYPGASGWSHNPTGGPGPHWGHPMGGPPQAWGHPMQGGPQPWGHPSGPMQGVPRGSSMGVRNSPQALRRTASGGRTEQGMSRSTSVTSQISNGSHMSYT
Calcium/calmodulin-dependent protein kinase kinase 1 (Homo sapiens), sequence (Q8N5S9 whole entry, looked up): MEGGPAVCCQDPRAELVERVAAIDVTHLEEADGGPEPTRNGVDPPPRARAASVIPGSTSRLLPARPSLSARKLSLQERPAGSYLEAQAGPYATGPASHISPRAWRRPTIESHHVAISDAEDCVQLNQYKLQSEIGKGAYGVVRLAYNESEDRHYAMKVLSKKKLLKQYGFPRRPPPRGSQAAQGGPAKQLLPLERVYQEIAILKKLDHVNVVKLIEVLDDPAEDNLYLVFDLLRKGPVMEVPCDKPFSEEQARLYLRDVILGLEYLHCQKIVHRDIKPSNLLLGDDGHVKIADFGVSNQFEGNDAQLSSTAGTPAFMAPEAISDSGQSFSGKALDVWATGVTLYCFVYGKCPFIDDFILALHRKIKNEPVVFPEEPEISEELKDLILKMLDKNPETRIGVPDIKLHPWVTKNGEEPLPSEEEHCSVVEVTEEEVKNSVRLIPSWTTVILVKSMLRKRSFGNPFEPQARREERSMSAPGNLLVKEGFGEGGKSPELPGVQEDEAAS
Cyclin-dependent kinase 14 (Homo sapiens), sequence (O94921 whole entry): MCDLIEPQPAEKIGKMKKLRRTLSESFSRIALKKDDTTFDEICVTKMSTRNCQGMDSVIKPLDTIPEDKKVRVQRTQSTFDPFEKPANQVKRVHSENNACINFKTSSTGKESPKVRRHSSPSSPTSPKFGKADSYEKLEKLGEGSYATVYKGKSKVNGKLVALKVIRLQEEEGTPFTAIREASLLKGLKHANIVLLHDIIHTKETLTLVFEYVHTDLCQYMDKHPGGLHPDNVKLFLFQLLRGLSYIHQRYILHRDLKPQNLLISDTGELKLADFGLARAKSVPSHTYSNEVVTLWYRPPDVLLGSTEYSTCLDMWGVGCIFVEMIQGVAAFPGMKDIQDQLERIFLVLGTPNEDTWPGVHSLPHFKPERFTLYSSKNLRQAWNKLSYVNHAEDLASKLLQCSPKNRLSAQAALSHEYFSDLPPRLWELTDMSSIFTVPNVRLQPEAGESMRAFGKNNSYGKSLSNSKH

CC1=C(C#N)C(c2ccc3[nH]nc(C)c3c2)C(C#N)=C(C)N1 [BAY-474]
inactive: inhibition [1] -8% | inhibition [2] -2% | inhibition [3] 5% | inhibition [4] -8% | inhibition [5] 12% | inhibition [6] 0% | inhibition [7] -4% | inhibition [8] 3% | inhibition [9] 10% | inhibition [10] -3.35% | inhibition [11] -2%

CC1=C(C#N)[C@@H](c2ccc3[nH]nc(C)c3c2)C(C#N)=C(c2ccc(Cl)cc2)N1 [BAY-827]
inactive: residual activity [12] 82.9% | residual activity [13] 100% | residual activity [14] 93.7% | residual activity [15] 88.5% | residual activity [16] 100% | residual activity [17] 64.7% | residual activity [18] 99.4% | residual activity [19] 100% | residual activity [20] 100% | residual activity [21] 86.6% | residual activity [22] 100% | residual activity [23] 100% | residual activity [24] 89.5% | residual activity [25] 76.2% | residual activity [26] 100% | residual activity [27] 71.5% | residual activity [28] 100% | residual activity [29] 90.6% | residual activity [30] 82.2% | residual activity [31] 100% | residual activity [32] 100% | residual activity [33] 94.4% | residual activity [34] 100% | residual activity [35] 97.2% | residual activity [36] 96.4% | residual activity [37] 100% | residual activity [38] 100% | residual activity [39] 100% | residual activity [40] 100% | residual activity [41] 100% | residual activity [42] 88.1%
